This note sets out measurements from patent US20060205692A1, “1,1-and 1,2-Bisphosphonates as apoliprotein e modulators” (priority 2002, published 2006).

The test has as its system ApoE. Description: apoE secretion by PMA-differentiated THP-1 cells, apoE quantified by ELISA. The conditions noted are these: 3 days; for percent change in apoE secretion versus control at 25 µM / percent change in apoE secretion versus control at 50 µM / percent change in apoE secretion versus control at 100 µM: Homo sapiens, THP-1, 72 h. It is filed as cell-based, human. The text has this: The bisphosphonate compounds of the invention can modulate (increase or decrease) apoE levels in plasma and in tissues. The activities of the compounds can be determined in an in vitro cell assay comprising determining the modulatory effect of the test compound on the secretion of apoE by an apoE secreting cell line (e.g., a monocyte-macrophage cell line such as the THP-1 cell line, a liver derived cell line such as the HepG2 cell line, an intestinal derived cell line such as the CaCo2 cell line or a brain derived cell line such as the astrocytoma CCF-STTG1 cell line).
THP-1 cell line (ATCC TIB-202) are cultured in RPMI 1640 (with 2 mM of L-glutamine and 2 g/l of glucose, Invitrogen) supplemented with 2 g/l of sodium hydrogen carbonate (Fluka), 10 U/ml of penicillin, 10 μg/ml of streptomycin (Penicillin-Streptomycin, Invitrogen), 20 μM of 2-mercaptoethanol (Fluka) and 10% FCS (Amimed). Cells are incubated at 37° C. and 5% CO2.
Cells are seeded in 24 well tissue culture plates (Falcon), 2×10^5 cells in 500 μl of culture medium per well or 6 well plates for RT-PCR purpose, 1×10^6 cells in 2.5 ml of medium. PMA (Phorbol 12-myristate 13-acetate, Alexis), (stock in DMSO (Fluka) at 1 mg/ml) and other compounds are diluted in ethanol and added to the cells at an ethanol final concentration not exceeding 1%. Same volume of ethanol is added in controls. Plates are incubated for 3 days at 37° C. and 5% CO2 to allow cell differentiation and apoE secretion.
Medium contained in the wells is harvested and centrifuged 5 min at 1200 rpm. Supernatants are store at −20° C. until apoE quantification. The cell pellets are resuspended in PBS and counted with a ZI Coulter Counter. After a wash with PBS, adherent cells in the well bottoms are detached with trypsin-EDTA solution 10× (Invitrogen) diluted in PBS. The reaction is stopped with the addition of culture medium and the detached cells are counted.
ApoE was quantified by ELISA. 96 well plates (Costar) are coated with 5% of gelatine (from porcine skin, Fluka) in carbonate-bicarbonate buffer (Sigma) for 1 hour at 37° C. After removing the coating solution, 100 μl of THP-1 supernatant are added per well, diluted 5 times in buffer (PBS, 1% Top-Block (Juro), 0.1% Tween 20 (Fluka)). The incubation last 1 hour at 37° C., then the wells are washed 3 times with 200 μl of buffer. Plates are incubated for 1 hour at 37° C. with continuous stirring with the primary antibody (goat anti-human apoE IgG, Calbiochem) at a 10000-time dilution in buffer, 100 μl per well. After 3 washes, plates are incubated with the secondary antibody (rabbit anti-goat-IgG peroxidase conjugated, Sigma) diluted 5000 times, 100 μl per well, at 37° C. with shaking. Then the wells are washed 5 more times and the detection is achieved by adding 100 μl per well of o-phenylenediamine dihydrochloride (Sigma) and incubated for 15-20 minutes with shaking at room temperature. When the appropriated colour is reached, the reaction is stopped by adding 50 μl per well of 3 M sulfuric acid (Fluka) with shaking for 1 minute at room temperature. The absorbance is read at 492 nm versus 620 nm with a microplate photometer (Anthos Reader 2001).
On the technique in general: In an ELISA, binding on a coated surface is turned into a signal by an enzyme label.

Regarding `CCOP(=O)(CC(c1cccc(OCCc2ccccn2)c1)P(=O)(OCC)OCC)OCC` (stereo not drawn) [Tetraethyl 1-[3-(2-pyridin-2-yl-ethoxy)-phenyl]-ethylidene-1,2-bisphosphonate], the percent change in apoE secretion versus control at 25 µM worked out at 31% (compound 25 μM, 1.25 nM PMA) and 110% (compound 25 μM, 2.5 nM PMA). In addition, the percent change in apoE secretion versus control at 50 µM was 51% (compound 50 μM, 1.25 nM PMA) and 124% (compound 50 μM, 2.5 nM PMA). The percent change in apoE secretion versus control at 100 µM reads like this: (compound 100 μM, 1.25 nM PMA) 274%; (compound 100 μM, 2.5 nM PMA) 206%.

As to `CCOc1ccc(C(CP(=O)(OCC)OCC)P(=O)(OCC)OCC)cc1` (stereo not drawn) [Tetraethyl 1-(4-ethoxyphenyl)-ethylidene-1,2-bisphosphonate], the “% ApoE Change” value (compound 25 μM, 1.25 nM PMA) was −16%; the “% ApoE Change” value (compound 25 μM, 2.5 nM PMA) came out at 5%; the “% ApoE Change” value (compound 50 μM, 1.25 nM PMA) is −12%; the “% ApoE Change” value (compound 50 μM, 2.5 nM PMA) is given as 4%; the “% ApoE Change” value (compound 100 μM, 1.25 nM PMA) is 36%; the “% ApoE Change” value (compound 100 μM, 2.5 nM PMA) is 54%.

Consider `CCOP(=O)(OCC)C(c1ccc(OCc2ccccn2)cc1)P(=O)(OCC)OCC` [Tetraethyl 1-[4-(pyridin-2-yl-methoxy)-phenyl]-methylidene-1,1-bisphosphonate], for which the “% ApoE Change” value (compound 25 μM, 1.25 nM PMA) is given as 16%; the “% ApoE Change” value (compound 25 μM, 2.5 nM PMA) is reported as 96%; the “% ApoE Change” value (compound 50 μM, 1.25 nM PMA) turned out to be 146%; the “% ApoE Change” value (compound 50 μM, 2.5 nM PMA) is on record as 192%; the “% ApoE Change” value (compound 100 μM, 1.25 nM PMA) was 443%; the “% ApoE Change” value (compound 100 μM, 2.5 nM PMA) was 574%.

On to `CCOP(=O)(OCC)C(c1ccc(OCCCN(C)c2ccccn2)cc1)P(=O)(OCC)OCC` [Tetraethyl 1-{4-[3-(methyl-pyridin-2-yl-amino)-propoxy]-phenyl}-methylidene-1,1-bisphosphonate], for which the percent change in apoE secretion versus control at 25 µM is, setting by setting: (compound 25 μM, 1.25 nM PMA) 375%; (compound 25 μM, 2.5 nM PMA) 557%.

In the case of `CCOP(=O)(OCC)C(c1ccc(OCCc2ccccn2)cc1)P(=O)(OCC)OCC` [Tetraethyl 1-[4-(2-pyridin-2-yl-ethoxy)-phenyl]-methylidene-1,1-bisphosphonate], the “% ApoE Change” value is, setting by setting: (compound 25 μM, 1.25 nM PMA) 57%; (compound 25 μM, 2.5 nM PMA) 38%; (compound 50 μM, 1.25 nM PMA) 133%; (compound 50 μM, 2.5 nM PMA) 73%; (compound 100 μM, 1.25 nM PMA) 363%; (compound 100 μM, 2.5 nM PMA) 145%.

Take `CCOP(=O)(OCC)C(c1ccc(OCc2ccc(C#N)cc2)cc1)P(=O)(OCC)OCC` [Tetraethyl 1-[4-(4-cyano-benzyloxy)-phenyl]-methylidene-1,1-bisphosphonate]: the “% ApoE Change” value (compound 25 μM, 1.25 nM PMA) was determined as 91%; the “% ApoE Change” value (compound 25 μM, 2.5 nM PMA) is listed as 134%; the “% ApoE Change” value (compound 50 μM, 1.25 nM PMA) is on record as 192%; the “% ApoE Change” value (compound 50 μM, 2.5 nM PMA) turned out to be 225%; the “% ApoE Change” value (compound 100 μM, 1.25 nM PMA) was 447%; the “% ApoE Change” value (compound 100 μM, 2.5 nM PMA) is reported as 328%.

For the compound `COP(=O)(OC)C(c1ccc(O)cc1)P(=O)(OC)OC` [Tetramethyl 1-(4-hydroxy-phenyl)methylidene-1,1-bisphosphonate], the “% ApoE Change” value is, setting by setting: (compound 25 μM, 1.25 nM PMA) −7%; (compound 25 μM, 2.5 nM PMA) −17%; (compound 50 μM, 1.25 nM PMA) −27%; (compound 50 μM, 2.5 nM PMA) −25%; (compound 100 μM, 1.25 nM PMA) −19%; (compound 100 μM, 2.5 nM PMA) −10%.

For `CCOP(=O)(CC(c1ccc(OCc2ccccn2)cc1)P(=O)(OCC)OCC)OCC` (stereo not drawn) [Tetraethyl 1-[4-(pyridin-2-yl-methoxy)-phenyl]-ethylidene-1,2-bisphosphonate], the “% ApoE Change” value runs as follows: (compound 25 μM, 2.5 nM PMA) 152%; (compound 50 μM, 2.5 nM PMA) 158%; (compound 100 μM, 2.5 nM PMA) 289%.

Take `CCOP(=O)(OCC)C(c1ccc(OCCN2CCCC2)cc1)P(=O)(OCC)OCC` [Tetraethyl 1-[4-(2-N-pyrrolidino-ethoxy)-phenyl]-methylidene-1,1-bisphosphonate]: the “% ApoE Change” value was −5% (compound 25 μM, 1.25 nM PMA); 2% (compound 25 μM, 2.5 nM PMA); 2% (compound 50 μM, 1.25 nM PMA); 7% (compound 50 μM, 2.5 nM PMA); 56% (compound 100 μM, 1.25 nM PMA); 32% (compound 100 μM, 2.5 nM PMA).

On to `CC(C)OP(=O)(OC(C)C)C(c1ccc(O)cc1)P(=O)(OC(C)C)OC(C)C` [Tetraisopropyl 1-(4-hydroxy-phenyl)-methylidene-1,1-bisphosphonate], for which the percent change in apoE secretion versus control at 25 µM was determined as 290% (compound 25 μM, 1.25 nM PMA) and 52% (compound 25 μM, 2.5 nM PMA). The percent change in apoE secretion versus control at 50 µM is 399% (compound 50 μM, 1.25 nM PMA) and 35% (compound 50 μM, 2.5 nM PMA). In addition, the percent change in apoE secretion versus control at 100 µM (compound 100 μM, 1.25 nM PMA) was 488% and the percent change in apoE secretion versus control at 100 µM (compound 100 μM, 2.5 nM PMA) was 73%.

As to `CCOP(=O)(OCC)C(c1ccc(OCCN2CCCCC2)cc1)P(=O)(OCC)OCC` [Tetraethyl 1-[4-(2-N-piperidino-ethoxy)-phenyl]-methylidene-1,1-bisphosphonate], the “% ApoE Change” value was −22% (compound 25 μM, 1.25 nM PMA); −2% (compound 25 μM, 2.5 nM PMA); 6% (compound 50 μM, 1.25 nM PMA); 0% (compound 50 μM, 2.5 nM PMA); 65% (compound 100 μM, 1.25 nM PMA); 33% (compound 100 μM, 2.5 nM PMA).

Take `CCOP(=O)(OCC)C(c1ccc(OCCCO)cc1)P(=O)(OCC)OCC` [Tetraethyl 1-[4(3-hydroxy-propoxy)-phenyl]-methylidene-1,1-bisphosphonate]: the percent change in apoE secretion versus control at 25 µM by setting is: (compound 25 μM, 1.25 nM PMA) -27%; (compound 25 μM, 2.5 nM PMA) -15%. Further, the percent change in apoE secretion versus control at 50 µM runs as follows: (compound 50 μM, 1.25 nM PMA) -21%; (compound 50 μM, 2.5 nM PMA) -16%. The percent change in apoE secretion versus control at 100 µM is 20% (compound 100 μM, 1.25 nM PMA) and 0% (compound 100 μM, 2.5 nM PMA).

Turning to `CCOP(=O)(OCC)C(c1ccc(O)cc1)P(=O)(OCC)OCC` [Tetraethyl 1-(4-hydroxy-phenyl)-methylidene-1,1-bisphosphonate], the percent change in apoE secretion versus control at 25 µM is, setting by setting: (compound 25 μM, 1.25 nM PMA) -13%; (compound 25 μM, 2.5 nM PMA) -3%. Besides, the percent change in apoE secretion versus control at 50 µM is 26% (compound 50 μM, 1.25 nM PMA) and -9% (compound 50 μM, 2.5 nM PMA). The percent change in apoE secretion versus control at 100 µM reads like this: (compound 100 μM, 1.25 nM PMA) 125%; (compound 100 μM, 2.5 nM PMA) 60%.

Consider `CCOP(=O)(OCC)C(c1ccc(OCCN(CCC#N)c2ccccc2)cc1)P(=O)(OCC)OCC` [Tetraethyl 1-(4-{2-[(2-cyano-ethyl)-phenyl-amino]-ethoxy}-phenyl)-methylidene-1,1-bisphosphonate], for which the percent change in apoE secretion versus control at 25 µM was 276% (compound 25 μM, 1.25 nM PMA) and 209% (compound 25 μM, 2.5 nM PMA). In addition, the percent change in apoE secretion versus control at 50 µM runs as follows: (compound 50 μM, 1.25 nM PMA) 678%; (compound 50 μM, 2.5 nM PMA) 311%. In addition, the percent change in apoE secretion versus control at 100 µM (compound 100 μM, 2.5 nM PMA) amounted to 499%.

For `CCOP(=O)(CC(c1ccc(OCCCN2C(=O)c3ccccc3C2=O)cc1)P(=O)(OCC)OCC)OCC` (stereo not drawn) [Tetraethyl 1-[4-(3-N-phthalimidopropoxy)phenyl]-ethylidene-1,2-bisphosphonate], the percent change in apoE secretion versus control at 25 µM (compound 25 μM, 2.5 nM PMA) amounted to 644%. Moreover, the percent change in apoE secretion versus control at 50 µM (compound 50 μM, 2.5 nM PMA) worked out at 942%.

Take `CCOP(=O)(OCC)C(c1ccc(OCCCN2C(=O)c3ccccc3C2=O)cc1)P(=O)(OCC)OCC` [Tetraethyl 1-[4-(3-N-phthalimido-propoxy)-phenyl]-methylidene-1,1-bisphosphonate]: the percent change in apoE secretion versus control at 25 µM (compound 25 μM, 2.5 nM PMA) came to 352%. Moreover, the percent change in apoE secretion versus control at 50 µM (compound 50 μM, 2.5 nM PMA) came to 405%. Moreover, the percent change in apoE secretion versus control at 100 µM (compound 100 μM, 2.5 nM PMA) was 482%.
